# From patent publication US20150105252A1, “SUBSTITUTED PYRAZOLES AS HERBICIDES” (E I DU PONT DE NEMOURS AND COMPANY, priority 2013, published 2015)
# Key:
# [1] = tested on: lambsquarters; assay: Test C preemergence; assay type: in vivo, Chenopodium album
# Outline: (§1)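 Postemergence values come from plants sprayed at the 1- to 4-leaf stage (2–18 cm) in peat moss–vermiculite medium; preemergence values from seeds treated in a loam–sand blend. Both evaluated visually against controls after 13–15 greenhouse days, scale 0–100.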
# [2] = tested on: blackgrass; assay: Test C postemergence; assay type: in vivo, Alopecurus myosuroides
# Outline: as §1
# [3] = tested on: ryegrass, Italian; assay: Test C postemergence; assay type: in vivo, Lolium multiflorum
# Outline: as §1
# [4] = tested on: wheat; assay: Test C postemergence; assay type: in vivo, Triticum aestivum
# Outline: as §1
# [5] = tested on: galium; assay: Test C postemergence; assay type: in vivo, Galium aparine
# Outline: as §1
# [6] = tested on: corn; assay: Test C postemergence; assay type: in vivo, Zea mays
# Outline: as §1
# [7] = tested on: foxtail, giant; assay: Test C postemergence; assay type: in vivo, Setaria faberii
# Outline: as §1
# [8] = tested on: johnsongrass; assay: Test C postemergence; assay type: in vivo, Sorghum halepense
# Outline: as §1
# [9] = tested on: lambsquarters; assay: Test C postemergence; assay type: in vivo, Chenopodium album
# Outline: as §1
# [10] = tested on: morningglory; assay: Test C postemergence; assay type: in vivo, Ipomoea coccinea
# Outline: as §1
# [11] = tested on: nutsedge, yellow; assay: Test C postemergence; assay type: in vivo, Cyperus esculentus
# Outline: as §1
# [12] = tested on: pigweed; assay: Test C postemergence; assay type: in vivo, Amaranthus retroflexus
# Outline: as §1
# [13] = tested on: soybean; assay: Test C postemergence; assay type: in vivo, Glycine max
# Outline: as §1
# [14] = tested on: oilseed rape; assay: Test C postemergence; assay type: in vivo, Brassica napus
# Outline: as §1
# [15] = tested on: waterhemp; assay: Test C postemergence; assay type: in vivo, Amaranthus rudis
# Outline: as §1
# [16] = tested on: kochia; assay: Test C postemergence; assay type: in vivo, Kochia scoparia
# Outline: as §1
# [17] = tested on: velvetleaf; assay: Test C postemergence; assay type: in vivo, Abutilon theophrasti
# Outline: as §1
# [18] = tested on: chickweed; assay: Test C postemergence; assay type: in vivo, Stellaria media
# Outline: as §1
# [19] = Postemergence, 31 g ai/ha, visually evaluated after 13 to 15 days
# [20] = postemergence, 62 g ai/ha, scale 0 to 100
# [21] = postemergence, 250 g ai/ha, scale 0 to 100 (0 no effect, 100 complete control)
# [22] = postemergence, 125 g ai/ha, scale 0 to 100, 0 no effect, 100 complete control
compound,measurement,setting,value
CCc1cc(C(=O)NC(C)C)nn1Cc1ccnc(C(F)(F)F)c1 [Compound 103],"Plant response rating (scale of 0 to 100), Lambsquarters","[1]; Preemergence, 250 g ai/ha",100
same,Lambsquarters plant response rating,"[1]; preemergence, 31 g ai/ha, visual rating, scale 0 to 100 (0 no effect, 100 complete control), 13 to 15 days",100
same,"Plant response rating, Lambsquarters","[1]; preemergence, 62 g ai/ha, 13 to 15 days, scale 0 to 100, 0 = no effect, 100 = complete control",100
same,Lambsquarters plant response rating,"[1]; preemergence, 125 g ai/ha, scale 0 to 100, 0 is no effect, 100 is complete control",100
same,"Plant response rating (scale of 0 to 100 where 0 is no effect and 100 is complete control), Blackgrass",[2]; [19],10
same,Blackgrass plant response rating,[2]; [20],15
same,"Plant response rating, Blackgrass",[2]; [21],60
same,"Plant response rating, Blackgrass",[2]; [22],40
same,"Plant response rating (scale of 0 to 100 where 0 is no effect and 100 is complete control), Ryegrass, Italian",[3]; [19],5
same,"Ryegrass, Italian plant response rating",[3]; [20],5
same,"Plant response rating, Ryegrass, Italian",[3]; [21],45
same,"Plant response rating, Ryegrass, Italian",[3]; [22],5
same,"Plant response rating (scale of 0 to 100 where 0 is no effect and 100 is complete control), Wheat",[4]; [19],0
same,Wheat plant response rating,[4]; [20],5
same,"Plant response rating, Wheat",[4]; [21],15
same,"Plant response rating, Wheat",[4]; [22],5
same,"Plant response rating (scale of 0 to 100 where 0 is no effect and 100 is complete control), Galium",[5]; [19],50
same,Galium plant response rating,[5]; [20],70
same,"Plant response rating, Galium",[5]; [21],80
same,"Plant response rating, Galium",[5]; [22],75
same,"Plant response rating (scale of 0 to 100 where 0 is no effect and 100 is complete control), Corn",[6]; [19],10
same,Corn plant response rating,[6]; [20],15
same,"Plant response rating, Corn",[6]; [21],95
same,"Plant response rating, Corn",[6]; [22],35
same,"Plant response rating (scale of 0 to 100 where 0 is no effect and 100 is complete control), Foxtail, Giant",[7]; [19],40
same,"Foxtail, Giant plant response rating",[7]; [20],40
same,"Plant response rating, Foxtail, Giant",[7]; [21],90
same,"Plant response rating, Foxtail, Giant",[7]; [22],60
same,"Plant response rating (scale of 0 to 100 where 0 is no effect and 100 is complete control), Johnsongrass",[8]; [19],5
same,Johnsongrass plant response rating,[8]; [20],10
same,"Plant response rating, Johnsongrass",[8]; [21],95
same,"Plant response rating, Johnsongrass",[8]; [22],20
same,"Plant response rating (scale of 0 to 100 where 0 is no effect and 100 is complete control), Lambsquarters",[9]; [19],65
same,Lambsquarters plant response rating,[9]; [20],70
same,"Plant response rating, Lambsquarters",[9]; [21],90
same,"Plant response rating, Lambsquarters",[9]; [22],75
same,"Plant response rating (scale of 0 to 100 where 0 is no effect and 100 is complete control), Morningglory",[10]; [19],75
same,Morningglory plant response rating,[10]; [20],75
same,"Plant response rating, Morningglory",[10]; [21],100
same,"Plant response rating, Morningglory",[10]; [22],85
same,"Plant response rating (scale of 0 to 100 where 0 is no effect and 100 is complete control), Nutsedge, Yellow",[11]; [19],10
same,"Nutsedge, Yellow plant response rating",[11]; [20],10
same,"Plant response rating, Nutsedge, Yellow",[11]; [21],20
same,"Plant response rating, Nutsedge, Yellow",[11]; [22],10
same,"Plant response rating (scale of 0 to 100 where 0 is no effect and 100 is complete control), Pigweed",[12]; [19],50
same,Pigweed plant response rating,[12]; [20],50
same,"Plant response rating, Pigweed",[12]; [21],80
same,"Plant response rating, Pigweed",[12]; [22],65
same,"Plant response rating (scale of 0 to 100 where 0 is no effect and 100 is complete control), Soybean",[13]; [19],45
same,Soybean plant response rating,[13]; [20],70
same,"Plant response rating, Soybean",[13]; [21],98
same,"Plant response rating, Soybean",[13]; [22],95
same,"Plant response rating (scale of 0 to 100 where 0 is no effect and 100 is complete control), Oilseed Rape",[14]; [19],5
same,Oilseed Rape plant response rating,[14]; [20],50
same,"Plant response rating, Oilseed Rape",[14]; [21],70
same,"Plant response rating, Oilseed Rape",[14]; [22],50
same,"Plant response rating (scale of 0 to 100 where 0 is no effect and 100 is complete control), Waterhemp",[15]; [19],55
same,Waterhemp plant response rating,[15]; [20],65
same,"Plant response rating, Waterhemp",[15]; [21],90
same,"Plant response rating, Waterhemp",[15]; [22],65
same,"Plant response rating (scale of 0 to 100 where 0 is no effect and 100 is complete control), Kochia",[16]; [19],85
same,Kochia plant response rating,[16]; [20],85
same,"Plant response rating, Kochia",[16]; [21],90
same,"Plant response rating, Kochia",[16]; [22],85
same,"Plant response rating (scale of 0 to 100 where 0 is no effect and 100 is complete control), Velvetleaf",[17]; [19],25
same,Velvetleaf plant response rating,[17]; [20],40
same,"Plant response rating, Velvetleaf",[17]; [21],55
same,"Plant response rating, Velvetleaf",[17]; [22],45
same,"Plant response rating (scale of 0 to 100 where 0 is no effect and 100 is complete control), Chickweed",[18]; [19],50
same,Chickweed plant response rating,[18]; [20],60
same,"Plant response rating, Chickweed",[18]; [21],85
same,"Plant response rating, Chickweed",[18]; [22],75
